The values that follow come from US9296710B2, “Bicyclo (3.1.0) hexane-2, 6-dicarboxylic acid derivatives as mGlu2 receptor agonist” (Eli Lilly and Company, priority 2011, dated 2016).

The conditions of series [1]: both, human, pH 7.4. The method, then: Liver S9 fractions are obtained from Xenotech LLC (Lenexa, Mo.). The lot is from a pool of two donors, one male and one female. The liver S9 fraction is prepared and diluted using a homogenization buffer consisting of 50 mM Tris, pH 7.4 at 4° C. and 150 mM potassium chloride without EDTA. Prodrug compounds are incubated in the liver homogenate for 2 hours at 37° C., after which the concentration of compound is determined by LC/MS/MS. Hydrolysis of Clopidogrel to Clopidogrel Carboxylic Acid is utilized as an assay positive control.
Incubations are conducted in 96-well format and all prodrug compounds are run in duplicate on each day. Stock prodrug compound solutions are prepared in water at a concentration of 1 mM. Human liver S9 fraction is diluted to a final protein concentration of 0.5 mg/mL in 100 mM PBS buffer, pH 7.4. […]
LC/MS/MS quantification of compound formed during the incubation is performed on a Sciex API 4000, Analyst version 1.4.2, TURBOIONSPRAY®, positive ionization, and Selected Reaction Monitoring (SRM). […]
Concentrations of hydrolyzed compound in the incubation mixtures are determined from standard curves prepared by replicate two-fold dilution starting at 10 μM in 100 mM PBS pH 7.4 and subsequently quenched with methanol-internal standard solution identical to the samples. Averages and standard deviations are calculated using MICROSOFT® Office EXCEL® 2007. […]

Series [2] has as its system PCP-induced hyperlocomotor activity in rats. Put plainly: Reversal of Phencyclidine (PCP)-Induced Hyperlocomotor Activity in Rats. The class given is in vivo. Particulars: Rattus norvegicus. An excerpt: Administration of NMDA receptor antagonists, such as ketamine or phencyclidine (PCP), produces psychotomimetic-like effects in humans that are similar to those symptoms observed in patients with schizophrenia.
Motor activity is monitored by placing individual male, Sprague-Dawley (Harlan, Indianapolis, Ind.) rats in transparent, plastic shoe-box cages of the dimensions 45×25×20 cm, with 1 cm depth of wood chips as bedding, and a metal grill on top of the cage. Motor monitors (Kinder Scientific) consist of a rectangular rack of 12 photobeams arranged in an 8×4 formation, (or a high density grouping of 22 in a 15×7 pattern) at a height of 5 cm, with a second rack (for measuring rearing behaviors) at a height of 15 cm. The shoe box cage is placed inside of these racks, with the racks on a 3 foot high tabletop in an isolated room. […] On the test day, rats are placed in the test cage and allowed to acclimate for 30 minutes prior to PCP challenge; rats are monitored for an additional 60 minutes following PCP administration.
Data analysis and ED50 calculations are conducted using GraphPad PRISM® (San Diego, Calif. USA). Power analyses have determined that 8-10 rats per group are needed to have appropriate statistical power for detecting treatment differences (power=0.8). […]

The target of a further series is T1, human mGlu2 receptor (Homo sapiens, UniProt Q14416).
T1 construct: expressed in transfected cells; host or cells: AV-12 cells (Syrian hamster fibroblasts), co-transfected with rat EAAT1 and Galpha15
T1 sequence (Q14416 19-872): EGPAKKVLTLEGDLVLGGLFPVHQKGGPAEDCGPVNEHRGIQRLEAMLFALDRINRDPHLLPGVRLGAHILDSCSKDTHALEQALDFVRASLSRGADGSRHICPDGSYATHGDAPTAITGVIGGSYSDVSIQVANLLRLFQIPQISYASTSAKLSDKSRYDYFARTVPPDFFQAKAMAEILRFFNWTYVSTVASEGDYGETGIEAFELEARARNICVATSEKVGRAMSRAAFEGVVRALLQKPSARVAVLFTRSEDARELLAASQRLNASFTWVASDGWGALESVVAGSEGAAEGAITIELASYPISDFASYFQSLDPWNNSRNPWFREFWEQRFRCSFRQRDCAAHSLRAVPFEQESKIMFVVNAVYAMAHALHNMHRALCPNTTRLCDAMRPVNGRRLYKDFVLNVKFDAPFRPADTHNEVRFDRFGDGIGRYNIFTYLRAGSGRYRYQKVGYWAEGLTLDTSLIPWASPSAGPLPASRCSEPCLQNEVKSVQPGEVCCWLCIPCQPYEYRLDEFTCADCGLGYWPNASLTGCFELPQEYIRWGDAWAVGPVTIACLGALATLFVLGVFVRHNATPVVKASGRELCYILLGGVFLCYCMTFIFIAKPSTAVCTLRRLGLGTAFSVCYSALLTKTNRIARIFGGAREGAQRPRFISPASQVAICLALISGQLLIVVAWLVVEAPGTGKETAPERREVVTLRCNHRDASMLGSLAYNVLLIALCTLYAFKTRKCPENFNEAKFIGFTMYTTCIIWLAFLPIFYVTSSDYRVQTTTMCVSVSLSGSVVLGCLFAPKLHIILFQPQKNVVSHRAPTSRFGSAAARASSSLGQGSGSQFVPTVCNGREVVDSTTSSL
As to the kind of experiment: Human mGlu2 Agonist FLIPR Assay. The series is classed as cell-based. An excerpt:
AV-12 cell lines, derived from Syrian Hamster fibroblasts and stably expressing the human mGlu2 receptor and co-transfected with the rat glutamate transporter EAAT 1 (Excitatory Amino Acid Transporter 1) and the Gα15 subunit, are used for these studies. The expression of Gα15 allows Gi-coupled receptors to signal through the phospholipase C pathway, resulting in the ability to measure receptor activation by a fluorometric calcium response assay. The cell lines are maintained by culturing in Dulbecco's Modified Eagle's Medium (DMEM) with high glucose and pyridoxine hydrochloride supplemented with 5% dialyzed fetal bovine serum, 1 mM sodium pyruvate, 10 mM HEPES [4-(2-hydroxyethyl)-1-piperazineethanesulfonic acid], 1 mM of L-glutamine, and 5 μg/mL blasticidin (all media are purchased from Invitrogen). Confluent cultures are passaged biweekly using an enzyme-free dissociation solution (Chemicon S-004-B).
Intracellular calcium levels are monitored before and after the addition of compounds using a Fluorometric Imaging Plate Reader (FLIPR®, Molecular Devices). The assay buffer is comprised of Hank's Buffered Salt Solution (HBSS; Sigma) supplemented with 20 mM HEPES. […] The dye solution is removed and replaced with fresh assay buffer (50 μL per well). […] Results are analyzed using PRISM® v4.03 (GraphPad Software). […] Exemplified compounds of the present invention are solubilized as 10 mM stocks in 0.1N NaOH and stored at −20 C. They are diluted through a three-fold dilution series into assay buffer. After taking an initial 5-sec fluorescent read on the FLIPR® instrument, a compound of the present invention is added to the cell plate (50 μL per well). Data are collected every second for the first 30 seconds and then every 3 seconds for a total of 90 seconds in order to detect agonist activity. The maximal response is defined as that induced by ECmax (100 μM glutamate). The compound effect is measured as maximal minus minimal peak heights in relative fluorescent units (RFUs) corrected for basal fluorescence measured in the absence of glutamate. Determinations are carried out using single plates. Agonist effects are quantified as percent stimulation induced by compound alone relative to the maximal glutamate response. All data are calculated as relative EC50 values using a four-parameter logistic curve fitting program (ACTIVITY BASE® v5.3.1.22).

The test system of series [3] is stress-induced hyperthermia in rats. As to the kind of experiment: Attenuation of Stress-Induced Hyperthermia in Rats. The series is classed as in vivo, rat. The following applies: i.p. An excerpt:
In many anxiety disorders, hyperthermia occurs as part of the pathology and is considered a symptom of the disease. Compounds which attenuate stress-induced hyperthermia in animals are believed to be useful in treating anxiety disorders in humans. Generalized anxiety disorder is an example of such disorders that may be treated with such compounds. The conventional and minimally-invasive method for analyzing stress-induced hyperthermia is by measuring body temperature, and stress-induced increases in body temperature, via rectal thermometer. Male Fischer F-344 rats (Harlan, Indianapolis, Ind., USA) weighing between 275-350 g are tested. All animals are individually-housed with food and automated water available ad libitum, and maintained on a 12 h light/dark cycle (lights on at 06:00) Animals are fasted for approximately 12-18 hours before the experiment, which is conducted during the light phase. Rats are dosed one hour prior to the experiment by intraperitoneal (i.p.) route of administration in a dose volume of 1 mL/kg. The vehicle used was water with enough NaOH added to achieve a pH between 5-7. The mGluR5 antagonist MTEP (3-[(2-methyl-1,3-thiazol-4-yl)ethynyl]pyridine) and mGlu2/3 agonist LY317206 were used as quality controls, given that they produced reliable efficacy in this model Immediately following dosing, rats are returned to their home cage, and the experimenter turns off the lights and leaves the room. The dosing room is darkened for the remainder of the 1-hr pretreatment period.
After the pretreatment period, rats are taken individually to a brightly lit adjacent room where baseline body temperatures are determined by insertion of a rectal probe lubricated with mineral oil. Body temperature is assessed using a […] BAT-12® Microprobe Thermometer with a […] RET-2® rat rectal probe (Physitemp Instruments Inc., Clifton, N.J., USA). The probe is inserted approximately 2 cm into the rectum, to measure the core body temperature (this is the baseline body temperature, T1, in degrees Celsius). Ten minutes later a second body temperature measurement is recorded (T2). […]

pEC50: −log10 of the molar value.

Regarding `COC(=O)[C@H](c1ccccc1Cl)N1CCc2sccc2C1` [Clopidogrel], the “Hydrolysis of Clopidogrel to Clopidogrel Carboxylic Acid (positive control)” value in series [1] came to 73.0%.
As a reminder, the ED50 is the midpoint of the dose-response relation. Usually pEC50 stands for the EC50 on a negative log10 scale, so that one unit is a factor of ten. As for `N[C@@]1(C(=O)O)C[C@H](Sc2nc[nH]n2)[C@H]2[C@H](C(=O)O)[C@H]21` [Example 10, (1R,2S,4S,5R,6R)-2-amino-4-(1H-1,2,4-triazol-3-ylsulfanyl)bicyclo[3.1.0]hexane-2,6-dicarboxylic acid], the ED50 in series [2] (i.p. administration, 30 minutes prior to 5 mg/kg PCP) stood at 0.9 mg/kg. In addition, the pEC50 on human mGlu2 receptor (hMGLUR2 FLIPR assay, AV-12 cells expressing human mGlu2, calcium response, read-out: Relative EC50) is 7.16. For the same compound, at human mGlu2 receptor (percent stimulation relative to maximal glutamate response (100 μM glutamate), read-out: Relative % Efficacy), the Emax was found to be 89%. For the same compound, in series [3] (at 10 mg/kg), the “maximal reduction of stress-induced hyperthermia” value worked out at 75%. In addition, in series [3] (one hour pretreatment), the “T35 (dose producing 35% reduction in stress-induced hyperthermic response)” value was 1.7 mg/kg.
For `CSCC[C@H](N)C(=O)N[C@@]1(C(=O)O)C[C@H](Sc2nnc[nH]2)[C@H]2[C@H](C(=O)O)[C@H]21.Cl` [Example 25, (1R,2S,4S,5R,6R)-2-(L-methionylamino)-4-(4H-1,2,4-triazol-3-ylsulfanyl) bicyclo[3.1.0] hexane-2,6-dicarboxylic acid hydrochloride], the ED50 in series [2] (oral administration (prodrug), overnight fasted, 4 hours prior to 5 mg/kg PCP) was 6.4 mg/kg.
Regarding `Cc1nc(C#Cc2cccnc2)cs1` [MTEP, 3-[(2-methyl-1,3-thiazol-4-yl)ethynyl]pyridine, reference compound], in series [3] (3 mg/kg), the “reduction of stress-induced hyperthermia” value worked out at 53%.
